In patent US7517517B2 (Janssen Pharmaceutica N.V., priority 2002, dated 2009):

molecular target: T1, cloned rat mGlu1 receptor (Rattus norvegicus, UniProt P23385); assay: Signal transduction at the cloned rat mGlu1 receptor in CHO cells (glutamate-induced Ca2+ rise, FLIPR); format: cell-based; conditions: 50% inhibition of the glutamate-induced intracellular Ca2+ rise; CHO cells, FLIPR
T1 construct: expressed in transfected cells; host or cells: CHO cells
T1 sequence (P23385 19-1199): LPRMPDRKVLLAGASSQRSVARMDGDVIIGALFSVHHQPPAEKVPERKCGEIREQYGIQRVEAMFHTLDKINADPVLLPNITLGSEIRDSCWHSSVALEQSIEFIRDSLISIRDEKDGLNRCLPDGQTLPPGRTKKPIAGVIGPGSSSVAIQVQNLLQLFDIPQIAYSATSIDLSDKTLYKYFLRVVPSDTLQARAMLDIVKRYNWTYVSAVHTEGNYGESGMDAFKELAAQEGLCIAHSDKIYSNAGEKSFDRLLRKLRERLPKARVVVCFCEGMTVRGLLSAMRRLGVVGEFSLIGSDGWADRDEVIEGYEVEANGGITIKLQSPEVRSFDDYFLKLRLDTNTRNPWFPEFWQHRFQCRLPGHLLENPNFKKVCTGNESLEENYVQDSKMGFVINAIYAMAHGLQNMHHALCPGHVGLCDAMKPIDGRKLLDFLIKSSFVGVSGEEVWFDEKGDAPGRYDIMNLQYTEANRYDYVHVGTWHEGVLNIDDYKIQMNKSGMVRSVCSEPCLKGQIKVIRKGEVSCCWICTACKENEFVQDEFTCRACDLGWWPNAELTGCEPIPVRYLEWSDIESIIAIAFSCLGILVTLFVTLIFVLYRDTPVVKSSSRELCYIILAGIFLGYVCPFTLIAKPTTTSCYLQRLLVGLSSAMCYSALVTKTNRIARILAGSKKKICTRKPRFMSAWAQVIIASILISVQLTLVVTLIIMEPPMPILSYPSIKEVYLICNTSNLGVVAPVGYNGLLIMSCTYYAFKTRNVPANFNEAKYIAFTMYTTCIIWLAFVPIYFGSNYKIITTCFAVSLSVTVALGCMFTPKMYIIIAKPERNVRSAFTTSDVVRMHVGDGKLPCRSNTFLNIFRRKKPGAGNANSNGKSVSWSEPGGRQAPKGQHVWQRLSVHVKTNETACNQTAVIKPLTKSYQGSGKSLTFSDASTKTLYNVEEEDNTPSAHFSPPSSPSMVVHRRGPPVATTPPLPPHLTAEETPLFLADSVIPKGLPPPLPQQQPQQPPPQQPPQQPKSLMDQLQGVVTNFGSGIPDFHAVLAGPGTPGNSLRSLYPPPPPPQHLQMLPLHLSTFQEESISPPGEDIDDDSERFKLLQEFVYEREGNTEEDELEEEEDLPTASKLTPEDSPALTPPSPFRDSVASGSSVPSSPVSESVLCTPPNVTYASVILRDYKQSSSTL

IC50 [nM] | SMILES
4.68 | COC1CCC(C(=O)c2ccc3nc4c(cc3c2)CCCS4)CC1 (stereo not shown) [Compound 176]
4.84 | CCc1cc2cc(C(=O)C3CCC(OC)CC3)c(C)cc2nc1Cl (stereo not shown) [Compound 210]
5.85 | CCc1cc2cc(C(=O)C3CCC(OC)CC3)c(C)cc2nc1C (stereo not shown) [Compound 214]
9.77 | CCc1cc2cc(C(=O)Cc3ccccc3)ccc2nc1C [Compound 237]
2.59 | CO[C@H]1CC[C@@H](C(=O)c2ccc3nc4c(cc3c2)CCS4)CC1 [Compound 416]
9.02 | CO[C@H]1CC[C@H](C(=O)c2ccc3nc4c(cc3c2)CCS4)CC1 [Compound 418]
8.61 | CCc1cc2cc(C(=O)[C@H]3CC[C@@H](OC)CC3)c(C)cc2[nH]c1=O [Compound 419]
7.33 | COC1CCC(C(=O)c2ccc3nc4c(cc3c2)CCCC4)CC1 (stereo not shown) [Compound 420]

SMILES | IC50 [nM]
COC1CCC(C(=O)c2ccc3nc4c(cc3c2)CCCO4)CC1 (stereo not shown) [Compound 174] | 3.24

same assay, conditions: inhibition of glutamate-induced intracellular Ca2+ rise, CHO cells expressing mGlu1 receptor; compounds with pIC50 between 7 and 8

IC50 [nM] | SMILES
20 | CCc1cc2cc(C(=O)[C@H]3CCC[C@H](OC)C3)ccc2nc1Cl (relative stereo) [Compound 239]
13.5 | CCc1cc2cc(C(=O)C3(F)CCC(OC)CC3)ccc2nc1Cl (single isomer, unassigned) [Compound 220]
61.7 | CCc1cc2cc(C(=O)C3(F)CCC(OC)CC3)ccc2nc1Cl (single isomer, unassigned) [Compound 221]
100 | CCc1cc2cc(C(=O)[C@H]3CC[C@@H](OC)CC3)ccc2[nH]c1=S [Compound 36]
37.2 | COc1ccc2cc(C(=O)[C@H]3CC[C@@H](OC)CC3)ccc2n1 [Compound 91]
83.2 | CCCc1cc2cc(C(=O)[C@H]3CC[C@@H](OC)CC3)ccc2nc1OC [Compound 97]
26.9 | COc1nc2ccc(C(=O)[C@H]3CC[C@@H](OC)CC3)cc2cc1C [Compound 98]
56.2 | CCc1c(C)nc2ccc(C(=O)[C@H]3CC[C@@H](OC)CC3)cc2c1CC [Compound 108]
89.1 | CCc1cc2cc(C(=O)C3CC=CCC3)ccc2nc1C (stereo not shown) [Compound 112]
22.9 | CCO[C@H]1CC[C@@H](C(=O)c2ccc3nc(C)c(CC)cc3c2)CC1 [Compound 115]
44.7 | CCc1cc2cc(C(=O)Cc3ccccc3)ccc2nc1Cl [Compound 117]
30.2 | CCc1cc2cc(C(=O)[C@H]3CC[C@@H](OC)CC3)ccc2nc1N(C)C [Compound 128]
12 | CO[C@H]1CC[C@H](C(=O)c2ccc3nc4c(cc3c2)CCCS4)CC1 [Compound 178]
69.2 | CCc1cc2cc(C(=O)[C@H]3CC[C@@H](OC)CC3)ccc2nc1NC(=O)c1ccc(=O)[nH]c1 [Compound 191]
61.7 | CCc1cc2cc(C(=O)[C@H]3CC[C@@H](OC)CC3)ccc2nc1NC(=O)C1CCN(C(C)=O)CC1 [Compound 193]
85.1 | CCc1cc2cc(C(=O)C3CCC(OC)CC3)ccc2nc1NC(=O)C12CC3CC(CC(C3)C1)C2 (stereo not shown) [Compound 199]
20 | CCc1cc2cc(C(=O)[C@H]3CC[C@H](OC)CC3)c(C)cc2[nH]c1=O [Compound 213]
16.6 | CCc1cc2cc(C(=O)C3(F)CCC(OC)CC3)ccc2nc1C (stereo not shown) [Compound 224]
67.6 | CCc1cc2cc(C(=O)Cc3ccccc3OC)ccc2nc1C [Compound 236]
16.2 | CO[C@H]1CC[C@@H](C(=O)c2ccc3nc(C)ccc3c2)CC1 [Compound 238]
21.4 | CCc1cc2cc(C(=O)C3CCCC(OC)C3)ccc2nc1C (stereo not shown) [Compound 241]
17.4 | CCc1cc2cc(C(=O)C3(C)CCC(OC)CC3)ccc2nc1C (stereo not shown) [Compound 242]
51.3 | CCc1cc2cc(C(=O)CC3CCCCC34OCCO4)ccc2nc1Cl (stereo not shown) [Compound 243]
58.9 | CCCO[C@H]1CC[C@@H](C(=O)c2ccc3nc(C)c(CC)cc3c2)CC1 [Compound 255]
36.3 | CCc1cc2cc(C(=O)Cc3ccc(F)c(F)c3)ccc2nc1C [Compound 277]
45.7 | CCc1cc2cc(C(=O)C3CC4CC3CC4O)ccc2nc1Cl (stereo not shown) [Compound 280]
23.4 | CCc1cc2cc(C(=O)C3CC4CC(O)C3C4)ccc2nc1Cl (stereo not shown) [Compound 281]

IC50 [nM] | SMILES
95.5 | CCc1cc2cc(C(=O)C3(c4ccccc4)CC3)ccc2nc1C [Compound 283]
93.3 | COCc1cc2cc(C(=O)[C@H]3CC[C@H](OC)CC3)ccc2nc1C [Compound 286]
49 | CO[C@H]1CC[C@@H](C(=O)c2ccc3nc(C)c(CN(C)C)cc3c2)CC1 [Compound 287]
53.7 | CCc1cc2cc(C(=O)Cc3ccccc3)ccc2nc1N [Compound 289]
87.1 | CCCc1cc2cc(C(=O)Cc3ccccc3)ccc2nc1C [Compound 290]
44.7 | CCCc1cc2cc(C(=O)[C@H]3CC[C@@H](OC)CC3)ccc2nc1Cl [Compound 291]
60.3 | CCc1cc2cc(C(=O)Cc3ccsc3)ccc2nc1Cl [Compound 296]
33.1 | CCc1cc2cc(C(=O)Cc3cccs3)ccc2nc1C [Compound 298]
83.2 | CCc1cc2cc(C(=O)C34CCC(CC3)C4)ccc2nc1C [Compound 300]
60.3 | CCc1cc2cc(C(=O)CC3CC4CCC3C4)ccc2nc1C (stereo not shown) [Compound 303]
77.6 | CCCc1cc2cc(C(=O)CC3CC4CCC3C4)ccc2nc1C (stereo not shown) [Compound 307]
44.7 | O=C(CC1CC2CCC1C2)c1ccc2nc(Cl)ccc2c1 (stereo not shown) [Compound 313]
95.5 | CCCc1cc2cc(C(=O)C3CC4CCC3C4)ccc2nc1C (stereo not shown) [Compound 318]
52.5 | CCc1cc2cc(C(=O)C3CCC(OC)CC3)ccc2nc1NC(=O)c1ccc(OC)cc1 (stereo not shown) [Compound 323]
38.9 | CCOCC(=O)Nc1nc2ccc(C(=O)C3CCC(OC)CC3)cc2cc1CC (stereo not shown) [Compound 326]
67.6 | CCc1cc2cc(C(=O)C3CCC(OC)CC3)ccc2nc1NC(=O)CSCc1ccccc1 (stereo not shown) [Compound 332]
38.9 | CCc1cc2cc(C(=O)C3CCC(OC)CC3)ccc2nc1NC(=O)C1CCN(C(C)=O)CC1 (stereo not shown) [Compound 333]
11.2 | CCc1cc2cc(C(=O)C3CCC(OC)CC3)ccc2nc1NC(=O)c1ccc(=O)[nH]c1 (stereo not shown) [Compound 334]
12.3 | CCc1cc2cc(C(=O)C3CCC(OC)CC3)ccc2nc1NC(=O)CCSC (stereo not shown) [Compound 338]
14.8 | CCc1cc2cc(C(=O)C3CCC(OC)CC3)ccc2nc1NC(=O)CCCc1ccc(OC)c(OC)c1 (stereo not shown) [Compound 341]
46.8 | CCc1cc2cc(C(=O)C3CCC(OC)CC3)ccc2nc1NC(=O)C1CCC(OC)CC1 (stereo not shown) [Compound 343]
30.2 | CCc1cc2cc(C(=O)C3CCC(OC)CC3)ccc2nc1NC(=O)C1CCCCC1 (stereo not shown) [Compound 344]
18.2 | CCc1cc2cc(C(=O)C3CCC(OC)CC3)ccc2nc1NC(=O)CCCC1CCCCC1 (stereo not shown) [Compound 346]
38 | CCc1cc2cc(C(=O)C3CCC(OC)CC3)ccc2nc1NC(=O)C1CCCO1 (stereo not shown) [Compound 356]
39.8 | CCc1cc2cc(C(=O)C3CCC(OC)CC3)ccc2nc1NC(=O)Nc1ccc(N(C)C)cc1 (stereo not shown) [Compound 369]
56.2 | CCc1cc2cc(C(=O)C3CCC(OC)CC3)ccc2nc1NC(=O)Nc1ccccc1SC (stereo not shown) [Compound 373]

SMILES | IC50 [nM]
CCc1cc2cc(C(=O)[C@H]3CC[C@H](OC)CC3)ccc2nc1C [Compound 131] | 64.6
CO[C@H]1CC[C@H](C(=O)c2ccc3nc4c(cc3c2)CCCO4)CC1 [Compound 175] | 19.5
